Where a name gives a salt, the structure may show the parent alone.
Legend:
[1] = biological target: T1, human ProRS (prolyl tRNA synthetase moiety of glutamyl prolyl tRNA synthetase) (Homo sapiens, UniProt P07814); test: Assay for inhibitors of prolyl tRNA synthetase activity (ProRS assay, labeled proline incorporation); assay type: biochemical; conditions: ProRS 20 nM, compounds 10 μM to 0.5 nM, 10 min at 37° C.; read-out: EPR IC50
T1 construct: The prolyl tRNA synthetase moiety (ProRS) in the cDNA of glutamyl prolyl tRNA synthetase was subcloned; 6xHis (N, cleaved yes); made in house; host or cells: E. coli BL21 (DE3)
T1 sequence (P07814 1007-1512 limits assumed): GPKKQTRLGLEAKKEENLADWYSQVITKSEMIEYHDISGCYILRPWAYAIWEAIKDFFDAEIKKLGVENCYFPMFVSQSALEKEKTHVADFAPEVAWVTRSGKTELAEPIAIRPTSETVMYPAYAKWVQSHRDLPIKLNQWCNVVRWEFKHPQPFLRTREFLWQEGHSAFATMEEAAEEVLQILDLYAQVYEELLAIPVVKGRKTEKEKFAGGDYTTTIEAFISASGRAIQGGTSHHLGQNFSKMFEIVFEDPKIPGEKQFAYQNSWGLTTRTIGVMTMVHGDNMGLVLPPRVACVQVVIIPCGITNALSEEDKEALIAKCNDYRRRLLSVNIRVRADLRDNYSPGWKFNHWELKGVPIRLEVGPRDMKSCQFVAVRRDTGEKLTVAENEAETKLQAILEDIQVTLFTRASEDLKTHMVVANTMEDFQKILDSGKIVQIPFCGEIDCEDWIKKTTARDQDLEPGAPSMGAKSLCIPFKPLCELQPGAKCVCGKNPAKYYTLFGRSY
From the text: In order to establish the activities of the compounds highlighted above, we determined extent of inhibition of prolyl tRNA synthetase activity in dose response curves to obtain IC50 values.
The prolyl tRNA synthetase moiety (ProRS) in the cDNA of glutamyl prolyl tRNA synthetase was subcloned, tagged with a single biotin, purified and used in the assay. Briefly, human ProRS with a 6× N-terminal His tag in pET28N with TVMV BioP was transformed in E. coli BL21 (DE3) cells, selected, overexpressed and purified using a Ni Seph 6 FF XK 16/20 column in the first stage. Ni-NTA eluates were pooled and treated with TVMV protease, and biotinylated using d-Biotin, MgCl2, ATP and the BirA enzyme. This was rerun through a Ni column as before. The eluates were further enriched and purified using membrane ultrafiltration and a SuperDex 200 XK 16/60 column, and peak fractions were confirmed by SDS-PAGE prior to protein amount determination, aliquoting and storage at −80° C.
ProRS assay was performed in 96 well plates in a final reaction volume of 20 μl, using staggered additions of Tris-Cl (pH 7.5, 60 mM), dithiothreitol (2 mM), ATP (5 mM, pH 7.0), MgCl2 6 mM), ProRS (20 nM, with pre-determined active fraction range) and bovine tRNA (20 μg). Controls and compounds, at various concentrations (10 μM to 0.5 nM), were incubated on ice with enzyme mix for 15 min followed by addition of proline (non-labeled and labeled, 3.96 and 1.04 μM (1 μCi) respectively) to initiate the reaction. Reaction was carried out for 10 min at 37° C. and terminated by addition of TCA (10%, 100 μl). Reaction mix was collected on a Whatman GF/B filter using a vacuum filtration manifold. This filter was washed 3 times with 5% TCA followed by 2 washes with ethanol, air dried, and read using a liquid scintillation counter (TopCount NXT) using MicroScint O. IC50 values were calculated and analyzed using ToolSet (4-parameter plot) and depicted herein.

Rat hepatocytes = test: GSH trapping assay; assay type: in vitro ADME; conditions: 30 μM, 24 hr incubation, LC-MS detection of GSH adducts
Procedure: Rat hepatocytes were isolated from male Sprague-Dawley rats (Vivo Biotech Ltd, HYD, India), weighing 230 to 280 g by the two step collagenase perfusion method (seglen, 1976; Berry M N and Friend D S.1969). Rat hepatocytes were cultured in Dulbecco's Modified Eagle's Medium (DMEM, Gibco®, USA) supplemented with 10^−6M dexamethasone (Gibco®), 5% fetal bovine serum (Gibco®) and cocktail-A mix (CM3000, Gibco®) containing HEPES buffer (PH 7.4), GlutaMAX™, human recombinant insulin, penicillin and streptomycin. Initial cell viability assessed by Trypanblue stain 0.4% (Sigma, UK) and viability more than 80% were considered for culturing. Hepatocytes were seeded in 96 well type-I collagen coated plates (Gibco®) at 4×10^4 cells/well in 100 μL of the culture medium and incubated at 37° C. in 5% CO2 and 95% relative humidity (RH) for 4 hr of cell attachment.
After 4hr incubation, rat hepatocytes were washed twice with pre-warmed (37° C.) DMEM incubation medium supplemented with 10^−7M dexamethasone and cell maintenance cocktail-B (CM4000, Gibco®) solution to remove unattached cells. Post washing hepatocytes were treated with test and reference compounds in incubation medium at single concentration (30 μM) in duplicate and incubate further for 24 hr at 37° C. with 5% CO2 and 95% RH. The final concentration of DMSO in medium was 0.5%.
Post 24 hr incubation, hepatocyte samples were quenched with equal volumes of acetonitrile containing 0.1% formic acid followed by vortex mix, sonicate and centrifuge at 12000 rpm at room temperature for 5 min. Supernatant samples were analyzed for GSH adducts on a C18 reverse-phase column (Xbridge™ Shield, C18, 4.6×150 mm, 3.5 μm) with solvent A (10 mM ammonium formate and 0.1% formic acid/water) and solvent B (0.1% formic acid/acetonitrile).
The column was eluted with 5% B for 5 min and then with a linear gradient to 20% B over 10 min and it was maintained upto 15 min, then it was increased linearly to 40% B upto 27 min and then increase to 90% B upto 29 min, and then equilibrate back the column to 5% B upto 33 min at a flow rate of 0.6 ml/min. The column effluent was directed into the ESI source of a LTQ Velos Orbitrap mass spectrometer (Thermo Fisher Scientific, San Jose, Calif.). The ESI conditions were as follows: sheath gas flow rate, 40 arbitrary units; auxiliary gas, 30 arbitrary units; spray voltage, 4.5 kV; capillary temperature, 230° C.; capillary voltage, 30 V; and tube lens offset, 25 V. Data were acquired in positive ion mode using Xcalibur software (Thermo Fisher Scientific) with one full scan followed by two data-dependent scans of the most intense and the second most intense ions. During the data interpretation the characteristic fragments of neutral loss of glycine (75.0320 Da), pyroglutamic acid (129.0426 Da) and loss of neutral moiety GSH (307.0838 Da) and/or a specific fragment of (GSH+H)^+ (m/z 308.0911) were monitored. Finally, the fragments ions with m/z e.g. 179.0485, 177.0328 and 162.0219 Da, which were derived from the glutathione moiety were used to report GSH positive results.

IC50 [1] [nM]	GSH adduct formation (Rat hepatocytes)	Compound
28	Negative	Cc1cc(C)c2ncn(CC(=O)C[C@H]3NCCC[C@@H]3O)c(=O)c2n1 [Example 1, 3-{3-[(2R,3S)-3-Hydroxypiperidin-2-yl]-2-oxopropyl}-6,8-dimethylpyrido[3,2-d]pyrimidin-4(3H)-one dihydrochloride]
15	Negative	O=C(C[C@H]1NCCC[C@@H]1O)Cn1cnc2cccnc2c1=O [Example 2, 3-{3-[(2R,3S)-3-Hydroxypiperidin-2-yl]-2-oxopropyl}pyrido[3,2-d]pyrimidin-4(3H)-one dihydrochloride]
773	Negative	Cc1cc(C)c2ncn(CC(=O)C[C@@H]3CCCCN3)c(=O)c2n1.Cl.Cl [Example 10, (S)-6,8-dimethyl-3-(2-oxo-3-(piperidin-2-yl)propyl)pyrido[3,2-d]pyrimidin-4(3H)-one dihydrochloride]
28	Negative	O=c1c2nc(-c3cccc(C(F)(F)F)c3)ccc2ncn1C[C@@H](O)C[C@H]1NCCC[C@@H]1O [Example 23, 3-{(S)-2-Hydroxy-3-[(2R,3S)-3-hydroxypiperidin-2-yl]propyl}-6-[3-(trifluoromethyl)phenyl]pyrido[3,2-d]pyrimidin-4(3H)-one dihydrochloride]
425	–	Cc1cc(C2CC2)nc2c(=O)n(C[C@@H](O)C[C@H]3NCCC[C@@H]3O)cnc12 [Example 30, 6-cyclopropyl-3-{(S)-2-hydroxy-3-[(2R,3S)-3-hydroxypiperidin-2-yl]propyl}-8-methylpyrido[3,2-d]pyrimidin-4(3H)-one dihydrochloride]
416	Negative	Cc1cc(C(F)(F)F)nc2c(=O)n(C[C@@H](O)C[C@H]3NCCC[C@@H]3O)cnc12 [Example 31, 3-{(S)-2-hydroxy-3-[(2R,3S)-3-hydroxypiperidin-2-yl]propyl}-8-methyl-6-(trifluoromethyl)pyrido[3,2-d]pyrimidin-4(3H)-one bis(2,2,2-trifluoroacetic acid)]
79	–	Cc1cc(-c2cccc(F)c2)nc2c(=O)n(C[C@@H](O)C[C@H]3NCCC[C@@H]3O)cnc12 [Example 32, 6-{(3-fluorophenyl)-3-[(S)-2-hydroxy-3-(2R,3S)-3-hydroxypiperidin-2-yl-propyl)-8-methylpyrido[3,2-d]}pyrimidin-4(3H)-one dihydrochloride]
23	–	Cc1cc(-c2cccc(Cl)c2)nc2c(=O)n(C[C@@H](O)C[C@H]3NCCC[C@@H]3O)cnc12 [Example 33, 6-(3-chlorophenyl)-3-{(S)-2-hydroxy-3-[(2R,3S)-3-hydroxypiperidin-2-yl]propyl}-8-methylpyrido[3,2-d]pyrimidin-4(3H)-one dihydrochloride]
290	–	Cc1cc(-c2cccnc2)nc2c(=O)n(C[C@@H](O)C[C@H]3NCCC[C@@H]3O)cnc12 [Example 34, 3-{(S)-2-hydroxy-3-[(2R,3S)-3-hydroxypiperidin-2-yl]propyl}-8-methyl-6-(pyridin-3-yl)pyrido[3,2-d]pyrimidin-4(3H)-one trihydrochloride]
1390	–	Cc1cc(C(C)C)cc2c(=O)n(C[C@@H](O)C[C@@H]3CCCCN3)cnc12 [Example 35, 3-{(S)-2-hydroxy-3-[(S)-piperidin-2-yl]-propyl}-6-isopropyl-8-methylquinazolin-4(3H)-one hydrochloride]
2180	–	Cc1cc(C)c2ncn(C[C@@H](O)C[C@@H]3CCCCN3)c(=O)c2n1 [Example 36, 3-{(S)-2-hydroxy-3-[(S)-piperidin-2-yl]propyl}-6,8-dimethylpyrido[3,2-d]pyrimidin-4(3H)-one dihydrochloride]
> 10000	–	Cc1cc(C)c2ncn(C[C@@H](O)C[C@H]3NCC[C@@H]3O)c(=O)c2n1 [Example 37, 3-{(S)-2-hydroxy-3-[(2R,3S)-3-hydroxypyrrolidin-2-yl]propyl}-6,8-dimethylpyrido(3,2-d)pyrimidin-4(3H)-one bis (2,2,2-trifluoroacetic acid)]
2300	–	O=c1c2cnccc2ncn1C[C@@H](O)C[C@H]1NCC[C@@H]1O [Example 38, 3-{(S)-2-hydroxy-3-[(2R,3S)-3-hydroxypyrrolidin-2-yl]-propyl}pyrido[4,3-d]pyrimidin-4(3H)-one bis (2,2,2-trifluoroacetic acid)]
301	Negative	Cc1cc(Cl)cn2c(=O)c(NC(=O)C[C@H]3NCCC[C@@H]3O)cnc12.Cl [Example 39, N-(7-Chloro-9-methyl-4-oxo-4H-pyrido [1,2-a]pyrimidin-3-yl)-2-[(2R, 3S)-3-hydroxypiperidin-2-yl]acetamide hydrochloride]
2730	–	Cc1cc(-c2cccc(F)c2)cn2c(=O)c(NC(=O)C[C@H]3NCCC[C@@H]3O)cnc12 [Example 40, N-(7-(3-fluorophenyl)-9-methyl-4-oxo-4H-pyrido[1,2-a]pyrimidin-3-yl)-2-((2R,3S)-3-hydroxypiperidin-2-yl)acetamide 2,2,2-trifluoroacetic acid]
> 8000	–	Cc1cc(C(F)(F)F)cn2c(=O)c(NC(=O)C[C@H]3NCCC[C@@H]3O)cnc12 [Example 41, 2-((2R,3S)-3-hydroxypiperidin-2-yl)-N-(9-methyl-4-oxo-7-(trifluoromethyl)-4H-pyrido[1,2-a]pyrimidin-3-yl)acetamide 2,2,2-trifluoroacetic acid]
